Measurements taken from ChEMBL document CHEMBL1141615, “Targeting RNA with cysteine-constrained peptides” (Bioorg Med Chem Lett, 2008).

Assay: Binding affinity to BIV transactivating response element RNA
Design: species or system Bovine immunodeficiency virus

Kd [µM]	SMILES
9.1	C[C@@H](O)[C@@H]1NC(=O)[C@H](CO)NC(=O)[C@H](Cc2c[nH]c3ccccc23)NC(=O)[C@H](CCC(N)=O)NC(=O)[C@H](Cc2cnc[nH]2)NC(=O)[C@H]([C@@H](C)O)NC(=O)[C@@H](N)CSSC[C@H](C(N)=O)NC(=O)[C@H](CCCCN)NC1=O
7.9	C[C@@H](O)[C@@H]1NC(=O)CNC(=O)[C@@H](N)CSSC[C@H](C(N)=O)NC(=O)[C@H](CCC(N)=O)NC(=O)[C@@H]2CCCN2C(=O)[C@H](Cc2c[nH]cn2)NC(=O)[C@H](Cc2cnc[nH]2)NC(=O)[C@H](Cc2c[nH]c3ccccc23)NC1=O
